Here are results for two compounds from patent US20260028334A1, “N-(3-(BENZO[B]THIOPHENE-2-CARBOXAMIDO)-PHENYL)-2,3-DIHYDROBENZO[B][1,4]DIOXINE-6-CARBOXAMIDE DERIVATIVES AND RELATED COMPOUNDS AS LACTATE/ATP PRODUCTION INHIBITORS FOR THE TREATMENT OF CANCER” (WMT Aktiengesellschaft, priority 2022, published 2026).

One assay has as its target p62 (Homo sapiens (Human), UniProt Q13501). The experiment in a line: Western Blot analysis of p62. It is filed as cell-based. The settings on record: HeLa cells, normoxic and hypoxic conditions; for p62: 24 hours, 10, 30 and 100 nM, also with Bafilomycin A, FIG. 5. On the procedure: Western Blot analysis was used to detect amounts of specific protein in differently treated cells. Proteins are separated by size, transferred onto a nitrocellulose membrane and incubated with protein specific antibodies. The density of the observed band is proportional to the amount of the specific protein inside the cell.
Cells were plated at 4×10^6 (for hypoxia) or 3×10^6 (for normoxia) cells per […] plate in medium of high glucose DMEM (PAN) supplemented with 10% FBS (PAN), 2 mM glutamine-alanine (PAN), 2 mM pyruvate (Sigma) and 10 ml/L penicillin-streptomycin (PAN), and grown at 37° C. in […], 5% CO2 and 75% humidity. For hypoxia, cells were grown and treated in the Whitley H35 Hypoxystation (Don Whitley Scientific) at 37° C. in 0.5% O2, 5% CO2 and 75% humidity. Next day, the cells were treated with test compounds (FIG. 4: compounds of example 3/8 and 10 at concentrations 0.1, 0.3 and 1 μM, Bafilomycin A at 20 nM; FIG. 5: compounds of example 3/16, 3/8 and 10 at concentrations 10, 30 and 100 nM, Bafilomycin A at 20 nM), as well as with vehicle (DMSO) only, for 24 h. After 24 hours, the cells were washed with PBS and scraped to collect. The lysate was centrifuged at 2,000 rpm for 3 min at 4° C. The cell pellet was resuspended in 250 μl Lysis Buffer (20 mM Tris pH 7.8, 150 mM NaCl, 0.05% Tween20, 2 mM MgCl2, protease inhibitors (Roche), 1 mM NaF, 1 mM Na3VO4) and sonicated at 50% for 20 sec. The sample was centrifuged at 14,000 rpm for 4 min at 4° C. Protein concentration of the sample was measured using the DC Protein Assay Kit (Biorad, 5000112), 22 μg of protein extract per well was loaded onto a precast SDS page gel (Biorad, 1704273). Proteins were then transferred onto a PVDF-membrane (Biorad, 10026933) using Biorad Trans-Blot Turbo Transfer System. […] The chemiluminescence was measured using chemiluminescent substrate (#34580, Thermo Scientific).
(A western blot detects proteins with antibodies after separation by electrophoresis.)

Another assay deals with lactate production. The experiment in a line: Lactate production inhibition assay. In kind it is cell-based. The settings on record: summary of Table 1. An excerpt:
Recombinant Lactate Dehydrogenase A (LDHA) was used to convert lactate in tissue culture supernatants to pyruvate, with the concomitant reduction of NAD^+ to NADH. The electron acceptor 1-methoxyphenazine methosulfate (MPMS) was then reduced by the generated NADH, thereby regenerating NAD+. Reduced 1-methoxyphenazine methosulfate is used in turn to reduce Water Soluble Tetrazolium 8 (WST8) to an orange WST8 formazan product. The assay is adapted from the publication “Application of WST-8 based colorimetric NAD(P)H detection for quantitative dehydrogenase assays” described in Chamchoy et al., BMC Biochemistry (2019) 20(1):4.
Cells were plated at 4,000 per well in 96-well plate in a medium of high glucose DMEM (PAN) supplemented with 10% FBS (PAN), 2 mM glutamine-alanine (PAN), 2 mM pyruvate (Sigma) and 10 mL/L penicillin-streptomycin (PAN) and grown at 37° C. in 0.5% O2, 5% CO2 and 75% humidity. For hypoxia, cells were grown and treated in the Whitley H35 Hypoxystation (Don Whitley Scientific) at 37° C. in 0.5% O2, 5% CO2 and 75% humidity. The next day, cells were induced with test compounds (FIG. 2: compounds of examples 3/16, 3/8, 10 at 10000, 3333, 1111, 370, 123, 41, 14, 5 and 1.5 nM; FIG. 7: compounds of examples 3/16, 3/8, 10 at 41, 14, 4.6 nM and Phenformin at 100, 50, 25, 12.5, 6.25 μM; FIGS. 8C and 8D: compounds of example 3/16, 3/8, 10, 3/19, 30 and 30/2 at 10000, 3333, 1111, 370, 123, 41, 14, 5 and 1.5 nM), as well as with vehicle (DMSO) only, for 48 hours. After this time, the medium was removed from the cells to measure extracellular lactate. To detect extracellular lactate, cell supernatants are diluted 1:5 in assay buffer (0.2 M tris, pH 8.2) by adding 10 μl cell supernatant+40 μl buffer in a 96-well plate. Assay substrate mix is prepared by adding NAD+ (3.75 mM), WST-8 (0.9 mM), MPMS (10 mM) and recombinant LDHA, expressed in E. coli as an N-terminal hexahistidine tagged fusion protein, is added to a final concentration of 0.8 μg/ml in assay buffer. Thereafter, 80 μl of substrate mix is added to 20 μl of diluted cell supernatant in a 96-well flat-bottomed plate and the absorbance at 460 nm determined at one minute intervals over a 30 minute period. A standard curve of known lactate concentrations of 10, 8, 6, 4, 1, 0.5 and 0.25 mM was constructed for each assay plate.

Consider `O=C(Nc1ccc(F)c(NC(=O)c2cc3ccc(OCCCN4CCCC4)cc3s2)c1)c1ccc2c(c1)OCCO2` [3/8], for which the p62 protein levels entry at p62 (24 hours, 0.1, 0.3 and 1 μM, FIG. 4) is “dose-dependent reduction”. In addition, the p62 entry on p62 is “dose-dependent reduction”. In addition, the “activity in inhibiting production of ATP and/or lactate” value in the assay with lactate production is “high activity”.
As for `Cc1ccc(NC(=O)c2ccc3c(c2)OCCO3)cc1NC(=O)c1cc2cccnc2s1` [3/16], at p62, the p62 entry is “dose-dependent reduction”. Further, in the assay on lactate production, the “activity in inhibiting production of ATP and/or lactate” value was “high activity”.
